# Columns and labels:
# [1] = target: T1, Lactoylglutathione lyase (Homo sapiens, UniProt Q04760); experiment: Inhibition of 6-His tagged recombinant human glyoxalase 1 transfected in Escherichia coli BL21 (DE3) assessed as S-D-lactoylglutathione formation by spectrophotometer
# [2] = target: Hydroxyacylglutathione hydrolase, mitochondrial (Bos taurus, UniProt Q3B7M2); experiment: Inhibition of bovine liver glyoxalase 2
# [3] = Inhibition of yeast glyoxalase 1; design: species or system Saccharomyces cerevisiae
# [4] = Solubility of compound; format: physicochemical
# [5] = target: T1, Lactoylglutathione lyase; experiment: Inhibition of human glyoxalase 1
# T1 sequence (Q04760 whole entry): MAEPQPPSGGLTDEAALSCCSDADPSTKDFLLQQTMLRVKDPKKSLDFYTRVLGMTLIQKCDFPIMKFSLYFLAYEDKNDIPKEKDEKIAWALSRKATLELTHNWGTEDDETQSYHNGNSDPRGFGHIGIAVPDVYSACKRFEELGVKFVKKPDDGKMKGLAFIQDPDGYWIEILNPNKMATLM
SMILES,Ki [1] [nM],Ki [2] [nM],Ki [3] [nM],solubility [4] [mg/mL],Ki [5] [nM]
O=C(O)CNC(=O)C(CSC(=O)N(O)c1ccc(Br)cc1)NC(=O)CCC(NCCC(=O)OCCNC(=O)CCNC(=O)CC(=O)NCCNC(=O)CC(=O)NCCC(=O)NCCOC(=O)CCNC(CCC(=O)NC(CSC(=O)N(O)c1ccc(Br)cc1)C(=O)NCC(=O)O)C(=O)O)C(=O)O (stereo unspecified),0.3,81,3700,32,–
NCCC(=O)NC(CCC(=O)NC(CSC(=O)N(O)c1ccc(Cl)cc1)C(=O)NCC(=O)O)C(=O)O (stereo unspecified),–,–,–,–,330
CC(=O)CNC(CCC(=O)NC(CSC(=O)N(O)c1ccc(Cl)cc1)C(=O)NCC(=O)O)C(=O)O (stereo unspecified),–,–,–,–,130
CCOC(=O)CCNC(CCC(=O)NC(CSC(=O)N(O)c1ccc(Cl)cc1)C(=O)NCC(=O)O)C(=O)O (stereo unspecified),–,–,–,–,46
O=C(O)CNC(=O)C(CSC(=O)N(O)c1ccc(Br)cc1)NC(=O)CCC(NCCC(=O)OCCOCCOCCOCCNC(=O)CCCCCCC(=O)NCCCOCCOCCOCCCNC(=O)CCCCCCC(=O)NCCOCCOCCOCCOC(=O)CCNC(CCC(=O)NC(CSC(=O)N(O)c1ccc(Br)cc1)C(=O)NCC(=O)O)C(=O)O)C(=O)O (stereo unspecified),1,138,6900,26,–

# Reference: ChEMBL document CHEMBL3627636, “Novel bivalent inhibitors with sub-nanomolar affinities towards human glyoxalase I” (Bioorg Med Chem Lett, 2015)
